According to ChEMBL document CHEMBL5653631, “A Potent and Selective ULK1 Inhibitor Suppresses Autophagy and Sensitizes Cancer Cells to Nutrient Stress” (iScience, 2018):
Blank lines part the entries; values can stand above or below the molecule they belong to.

Assays:
[1] = molecular target: Protein kinase C iota type (Homo sapiens) (UniProt P41743); experiment: Inhibition of human recombinant PKCi at 500 nM related to control ULK1
[2] = molecular target: T1, Serine/threonine-protein kinase PLK4 (Homo sapiens) (UniProt O00444); experiment: Inhibition of human recombinant PLK4 at 500 nM related to control ULK1
T1 sequence (whole entry): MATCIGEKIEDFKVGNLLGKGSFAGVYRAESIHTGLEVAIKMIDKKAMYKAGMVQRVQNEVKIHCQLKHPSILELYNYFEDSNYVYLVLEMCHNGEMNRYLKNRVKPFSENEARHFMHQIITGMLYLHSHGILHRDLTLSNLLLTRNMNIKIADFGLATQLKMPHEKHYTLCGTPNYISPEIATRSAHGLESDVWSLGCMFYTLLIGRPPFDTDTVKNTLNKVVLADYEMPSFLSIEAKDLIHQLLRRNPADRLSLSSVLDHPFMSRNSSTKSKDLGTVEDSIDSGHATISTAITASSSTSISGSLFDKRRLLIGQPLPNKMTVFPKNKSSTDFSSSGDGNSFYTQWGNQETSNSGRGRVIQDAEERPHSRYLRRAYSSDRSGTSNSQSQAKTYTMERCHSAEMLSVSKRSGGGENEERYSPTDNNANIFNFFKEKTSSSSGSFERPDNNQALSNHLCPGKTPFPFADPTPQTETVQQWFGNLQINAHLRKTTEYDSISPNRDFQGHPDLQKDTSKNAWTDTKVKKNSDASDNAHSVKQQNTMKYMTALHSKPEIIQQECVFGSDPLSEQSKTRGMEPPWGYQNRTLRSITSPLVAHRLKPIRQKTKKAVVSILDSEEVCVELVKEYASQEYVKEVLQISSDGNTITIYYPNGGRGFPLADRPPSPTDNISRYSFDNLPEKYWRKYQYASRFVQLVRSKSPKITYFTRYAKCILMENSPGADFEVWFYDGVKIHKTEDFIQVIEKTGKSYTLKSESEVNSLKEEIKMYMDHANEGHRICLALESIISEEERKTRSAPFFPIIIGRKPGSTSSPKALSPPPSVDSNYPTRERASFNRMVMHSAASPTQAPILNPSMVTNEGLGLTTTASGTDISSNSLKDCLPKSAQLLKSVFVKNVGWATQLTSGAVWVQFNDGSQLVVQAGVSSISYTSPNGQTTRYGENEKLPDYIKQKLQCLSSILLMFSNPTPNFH

[3] = molecular target: Mitogen-activated protein kinase kinase kinase 9 (Homo sapiens) (UniProt P80192); experiment: Inhibition of human recombinant MLK1 at 15 nM related to control ULK1
Mitogen-activated protein kinase kinase kinase 9 (Homo sapiens), sequence (P80192 whole entry, looked up): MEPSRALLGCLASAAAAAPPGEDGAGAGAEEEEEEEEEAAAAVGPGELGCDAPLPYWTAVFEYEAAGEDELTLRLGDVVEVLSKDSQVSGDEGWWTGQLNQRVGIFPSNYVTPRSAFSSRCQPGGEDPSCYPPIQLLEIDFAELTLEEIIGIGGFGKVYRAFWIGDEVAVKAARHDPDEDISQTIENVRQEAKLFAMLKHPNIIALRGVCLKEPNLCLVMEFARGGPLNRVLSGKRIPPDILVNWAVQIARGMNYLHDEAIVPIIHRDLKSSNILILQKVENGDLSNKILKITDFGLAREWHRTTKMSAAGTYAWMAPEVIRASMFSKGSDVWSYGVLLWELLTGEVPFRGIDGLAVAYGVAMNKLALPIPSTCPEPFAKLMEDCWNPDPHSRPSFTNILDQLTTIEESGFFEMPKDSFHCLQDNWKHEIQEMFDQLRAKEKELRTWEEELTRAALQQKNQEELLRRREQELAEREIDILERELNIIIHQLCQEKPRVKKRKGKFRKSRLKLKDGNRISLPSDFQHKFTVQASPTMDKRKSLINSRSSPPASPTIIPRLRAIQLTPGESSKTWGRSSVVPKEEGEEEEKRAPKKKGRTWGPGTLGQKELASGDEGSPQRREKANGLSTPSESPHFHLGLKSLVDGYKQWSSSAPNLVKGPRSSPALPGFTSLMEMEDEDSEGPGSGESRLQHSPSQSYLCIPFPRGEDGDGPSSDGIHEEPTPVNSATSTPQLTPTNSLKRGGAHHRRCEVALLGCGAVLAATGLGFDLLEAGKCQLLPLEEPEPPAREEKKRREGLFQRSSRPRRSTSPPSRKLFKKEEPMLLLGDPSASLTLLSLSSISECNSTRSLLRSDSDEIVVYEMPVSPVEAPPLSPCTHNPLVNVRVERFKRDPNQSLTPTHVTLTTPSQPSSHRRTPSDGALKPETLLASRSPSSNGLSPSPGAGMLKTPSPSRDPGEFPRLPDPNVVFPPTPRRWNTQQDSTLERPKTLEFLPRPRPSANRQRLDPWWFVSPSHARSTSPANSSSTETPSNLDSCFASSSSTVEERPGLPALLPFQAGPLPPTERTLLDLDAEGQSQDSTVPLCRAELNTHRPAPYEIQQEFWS

[4] = molecular target: Fibroblast growth factor receptor 1 (Homo sapiens) (UniProt P11362); experiment: Inhibition of human recombinant FGFR1 at 15 nM related to control ULK1
Fibroblast growth factor receptor 1 (Homo sapiens), sequence (P11362 22-822 limits assumed): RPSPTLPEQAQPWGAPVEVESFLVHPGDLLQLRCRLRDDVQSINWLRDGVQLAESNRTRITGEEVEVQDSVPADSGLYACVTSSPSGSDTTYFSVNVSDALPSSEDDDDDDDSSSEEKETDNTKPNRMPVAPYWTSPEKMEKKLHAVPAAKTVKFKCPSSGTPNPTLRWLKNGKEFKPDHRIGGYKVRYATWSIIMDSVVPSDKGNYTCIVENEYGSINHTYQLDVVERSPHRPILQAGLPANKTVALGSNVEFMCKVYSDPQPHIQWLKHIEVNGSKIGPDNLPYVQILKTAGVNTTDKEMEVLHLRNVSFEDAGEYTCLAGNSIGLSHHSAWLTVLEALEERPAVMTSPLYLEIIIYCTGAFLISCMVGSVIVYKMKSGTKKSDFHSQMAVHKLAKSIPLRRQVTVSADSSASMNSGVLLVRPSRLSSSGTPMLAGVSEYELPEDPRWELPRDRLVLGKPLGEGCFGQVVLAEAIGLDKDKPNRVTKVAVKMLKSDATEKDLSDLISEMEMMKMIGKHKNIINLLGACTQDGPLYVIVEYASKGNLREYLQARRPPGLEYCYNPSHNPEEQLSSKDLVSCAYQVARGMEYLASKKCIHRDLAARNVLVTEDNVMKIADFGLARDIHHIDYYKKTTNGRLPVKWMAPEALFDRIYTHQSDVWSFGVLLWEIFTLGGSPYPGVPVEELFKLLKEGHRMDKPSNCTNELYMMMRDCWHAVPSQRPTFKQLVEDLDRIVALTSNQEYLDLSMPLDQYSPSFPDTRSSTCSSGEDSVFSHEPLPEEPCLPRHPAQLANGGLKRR

[5] = molecular target: Serine/threonine-protein kinase MAK (Homo sapiens) (UniProt P20794); experiment: Inhibition of human recombinant MAK at 15 nM in presence of ATP by radiometric assay relative to control
Serine/threonine-protein kinase MAK (Homo sapiens), sequence (P20794 whole entry, looked up): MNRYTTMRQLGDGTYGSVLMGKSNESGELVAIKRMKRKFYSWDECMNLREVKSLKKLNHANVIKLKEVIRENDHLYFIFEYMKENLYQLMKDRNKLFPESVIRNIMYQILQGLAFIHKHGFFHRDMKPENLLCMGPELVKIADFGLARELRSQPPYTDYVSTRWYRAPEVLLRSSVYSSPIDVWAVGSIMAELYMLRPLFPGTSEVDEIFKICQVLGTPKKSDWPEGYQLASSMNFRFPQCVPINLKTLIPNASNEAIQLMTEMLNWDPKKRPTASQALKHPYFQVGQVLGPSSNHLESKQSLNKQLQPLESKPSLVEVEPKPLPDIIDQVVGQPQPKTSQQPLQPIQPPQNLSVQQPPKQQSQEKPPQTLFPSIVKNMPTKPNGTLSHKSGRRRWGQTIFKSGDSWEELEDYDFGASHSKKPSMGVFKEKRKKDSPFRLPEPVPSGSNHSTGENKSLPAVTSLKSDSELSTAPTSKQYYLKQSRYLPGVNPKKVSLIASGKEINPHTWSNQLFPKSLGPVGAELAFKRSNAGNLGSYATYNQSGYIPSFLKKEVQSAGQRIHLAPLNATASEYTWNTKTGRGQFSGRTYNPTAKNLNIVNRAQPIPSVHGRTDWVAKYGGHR

[6] = molecular target: Dual specificity mitogen-activated protein kinase kinase 1 (Homo sapiens) (UniProt Q02750); experiment: Inhibition of human recombinant MAP2K1 at 15 nM in presence of ATP by radiometric assay relative to control
Dual specificity mitogen-activated protein kinase kinase 1 (Homo sapiens), sequence (Q02750 whole entry): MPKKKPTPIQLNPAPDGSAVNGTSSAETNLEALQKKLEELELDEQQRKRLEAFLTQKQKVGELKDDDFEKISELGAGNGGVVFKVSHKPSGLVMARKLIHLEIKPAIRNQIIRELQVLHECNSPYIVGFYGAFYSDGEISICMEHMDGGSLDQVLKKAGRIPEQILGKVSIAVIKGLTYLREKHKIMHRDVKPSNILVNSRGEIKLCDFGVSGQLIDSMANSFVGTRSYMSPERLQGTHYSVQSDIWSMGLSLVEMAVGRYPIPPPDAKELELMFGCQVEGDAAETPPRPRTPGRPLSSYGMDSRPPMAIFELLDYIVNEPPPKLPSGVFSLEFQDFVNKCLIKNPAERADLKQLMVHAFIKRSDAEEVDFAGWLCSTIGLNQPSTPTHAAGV

[7] = molecular target: BDNF/NT-3 growth factors receptor (Homo sapiens) (UniProt Q16620); experiment: Inhibition of human recombinant TRKB at 15 nM related to control ULK1
BDNF/NT-3 growth factors receptor (Homo sapiens), sequence (Q16620 32-822 limits assumed): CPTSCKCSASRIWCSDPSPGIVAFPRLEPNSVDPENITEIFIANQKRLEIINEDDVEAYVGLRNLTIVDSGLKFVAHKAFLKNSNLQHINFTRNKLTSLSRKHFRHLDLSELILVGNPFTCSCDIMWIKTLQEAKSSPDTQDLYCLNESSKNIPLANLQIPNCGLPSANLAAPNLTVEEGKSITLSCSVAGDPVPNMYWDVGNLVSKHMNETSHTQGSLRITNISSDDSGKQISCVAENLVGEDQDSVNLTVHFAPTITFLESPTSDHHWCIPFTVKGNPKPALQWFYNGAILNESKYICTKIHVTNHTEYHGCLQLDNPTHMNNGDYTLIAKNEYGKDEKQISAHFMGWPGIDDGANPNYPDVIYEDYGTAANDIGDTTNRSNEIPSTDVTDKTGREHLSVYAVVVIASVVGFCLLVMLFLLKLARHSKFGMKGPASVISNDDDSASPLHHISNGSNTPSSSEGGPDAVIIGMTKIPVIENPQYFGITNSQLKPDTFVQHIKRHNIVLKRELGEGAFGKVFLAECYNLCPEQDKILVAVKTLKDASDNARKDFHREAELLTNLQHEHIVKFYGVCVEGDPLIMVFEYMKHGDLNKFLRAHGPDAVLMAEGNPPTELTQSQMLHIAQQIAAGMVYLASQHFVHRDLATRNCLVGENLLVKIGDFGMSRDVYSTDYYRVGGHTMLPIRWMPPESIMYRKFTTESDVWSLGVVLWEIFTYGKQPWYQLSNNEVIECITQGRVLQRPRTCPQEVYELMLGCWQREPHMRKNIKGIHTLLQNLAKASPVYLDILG

[8] = molecular target: Maternal embryonic leucine zipper kinase (Homo sapiens) (UniProt Q14680); experiment: Inhibition of human recombinant MELK at 40 nM related to control ULK1
Maternal embryonic leucine zipper kinase (Homo sapiens), sequence (Q14680 whole entry, looked up): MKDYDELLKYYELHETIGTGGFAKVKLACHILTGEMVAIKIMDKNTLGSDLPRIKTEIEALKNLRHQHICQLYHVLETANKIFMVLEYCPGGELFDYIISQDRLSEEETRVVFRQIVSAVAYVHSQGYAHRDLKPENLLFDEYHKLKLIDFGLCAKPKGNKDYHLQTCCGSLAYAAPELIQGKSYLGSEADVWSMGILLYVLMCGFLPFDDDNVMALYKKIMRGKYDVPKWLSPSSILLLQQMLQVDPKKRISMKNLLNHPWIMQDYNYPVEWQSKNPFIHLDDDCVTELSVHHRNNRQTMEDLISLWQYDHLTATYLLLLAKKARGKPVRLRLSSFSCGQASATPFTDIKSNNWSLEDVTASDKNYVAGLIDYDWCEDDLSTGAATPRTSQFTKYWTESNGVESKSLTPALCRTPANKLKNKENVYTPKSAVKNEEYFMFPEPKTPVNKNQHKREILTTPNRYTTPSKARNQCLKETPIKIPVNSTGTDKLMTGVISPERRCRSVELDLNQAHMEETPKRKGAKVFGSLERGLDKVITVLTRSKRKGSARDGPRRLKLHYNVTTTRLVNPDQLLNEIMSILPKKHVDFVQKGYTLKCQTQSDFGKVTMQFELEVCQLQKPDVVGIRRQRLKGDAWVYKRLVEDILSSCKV

[9] = molecular target: T2, Serine/threonine-protein kinase ICK (Homo sapiens) (UniProt Q9UPZ9); experiment: Inhibition of human recombinant ICK at 40 nM in presence of ATP by radiometric assay relative to control
T2 sequence (whole entry): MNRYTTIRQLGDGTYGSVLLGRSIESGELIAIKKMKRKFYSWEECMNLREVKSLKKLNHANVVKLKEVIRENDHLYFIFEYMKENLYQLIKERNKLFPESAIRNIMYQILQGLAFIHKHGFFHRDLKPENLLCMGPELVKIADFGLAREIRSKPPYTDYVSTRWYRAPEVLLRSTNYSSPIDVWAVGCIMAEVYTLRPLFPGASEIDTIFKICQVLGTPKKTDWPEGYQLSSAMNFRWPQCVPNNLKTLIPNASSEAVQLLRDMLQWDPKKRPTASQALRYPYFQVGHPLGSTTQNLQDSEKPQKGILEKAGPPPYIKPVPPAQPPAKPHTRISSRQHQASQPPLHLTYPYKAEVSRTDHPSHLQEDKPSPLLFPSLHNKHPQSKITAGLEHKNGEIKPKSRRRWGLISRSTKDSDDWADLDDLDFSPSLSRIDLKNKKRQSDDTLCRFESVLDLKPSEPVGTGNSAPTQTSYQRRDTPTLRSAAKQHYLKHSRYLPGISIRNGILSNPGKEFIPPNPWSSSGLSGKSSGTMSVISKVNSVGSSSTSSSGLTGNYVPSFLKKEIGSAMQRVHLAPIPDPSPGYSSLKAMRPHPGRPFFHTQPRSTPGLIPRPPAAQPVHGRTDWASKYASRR

[10] = molecular target: T3, Inhibitor of nuclear factor kappa-B kinase subunit beta (Homo sapiens) (UniProt O14920); experiment: Inhibition of human recombinant IKKb at 40 nM in presence of ATP by radiometric assay relative to control
T3 sequence (whole entry): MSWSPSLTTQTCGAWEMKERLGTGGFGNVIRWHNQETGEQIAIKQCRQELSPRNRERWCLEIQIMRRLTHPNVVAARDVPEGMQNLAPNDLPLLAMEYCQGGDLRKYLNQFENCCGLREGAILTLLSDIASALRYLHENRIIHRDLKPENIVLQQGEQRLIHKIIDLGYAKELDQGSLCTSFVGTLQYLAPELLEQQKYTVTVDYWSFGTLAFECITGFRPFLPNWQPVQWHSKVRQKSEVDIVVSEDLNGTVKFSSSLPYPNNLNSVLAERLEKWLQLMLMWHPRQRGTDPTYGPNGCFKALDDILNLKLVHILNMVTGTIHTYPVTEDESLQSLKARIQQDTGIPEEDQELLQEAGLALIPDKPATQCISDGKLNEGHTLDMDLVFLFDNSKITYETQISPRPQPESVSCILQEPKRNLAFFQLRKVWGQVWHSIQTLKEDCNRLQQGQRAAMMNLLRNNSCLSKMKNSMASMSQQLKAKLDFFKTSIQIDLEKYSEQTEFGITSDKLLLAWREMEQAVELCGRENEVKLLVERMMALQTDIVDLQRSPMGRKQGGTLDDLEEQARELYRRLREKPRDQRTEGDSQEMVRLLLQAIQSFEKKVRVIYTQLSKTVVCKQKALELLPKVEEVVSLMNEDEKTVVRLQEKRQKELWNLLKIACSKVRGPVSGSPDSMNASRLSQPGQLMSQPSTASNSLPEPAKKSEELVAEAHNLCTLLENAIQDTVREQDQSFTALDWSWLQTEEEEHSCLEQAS

Protein kinase C iota type (Homo sapiens), sequence (P41743 whole entry, looked up): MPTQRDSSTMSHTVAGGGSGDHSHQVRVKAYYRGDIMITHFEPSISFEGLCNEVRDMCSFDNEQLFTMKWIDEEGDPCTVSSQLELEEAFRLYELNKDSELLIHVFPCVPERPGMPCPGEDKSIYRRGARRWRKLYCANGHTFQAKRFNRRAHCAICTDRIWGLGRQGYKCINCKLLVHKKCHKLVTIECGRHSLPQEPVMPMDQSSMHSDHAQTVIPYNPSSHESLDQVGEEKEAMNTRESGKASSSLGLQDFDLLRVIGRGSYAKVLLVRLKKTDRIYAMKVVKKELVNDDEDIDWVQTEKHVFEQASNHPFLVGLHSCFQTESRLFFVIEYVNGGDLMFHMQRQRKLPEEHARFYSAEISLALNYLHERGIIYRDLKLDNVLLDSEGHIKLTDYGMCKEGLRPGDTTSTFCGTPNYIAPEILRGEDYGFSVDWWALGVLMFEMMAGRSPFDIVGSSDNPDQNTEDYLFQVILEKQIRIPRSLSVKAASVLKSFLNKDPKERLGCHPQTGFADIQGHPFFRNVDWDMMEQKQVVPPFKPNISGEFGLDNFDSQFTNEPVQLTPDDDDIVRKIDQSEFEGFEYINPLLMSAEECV

fold change (FC) [1]: 0 | fold change (FC) [2]: 0.62
Structure (SMILES): CNC(=O)c1ccccc1Oc1nc(Nc2cc(OC)c(OC)c(OC)c2)ncc1Br

fold change (FC) [3]: 0 | fold change (FC) [4]: 0 | inhibition [5]: 5% | inhibition [6]: 7% | fold change (FC) [7]: 0
Structure (SMILES): CC(C)[C@H](NC(=O)c1cc(-c2cnn3cc(-c4ccc(OCCN5CCCCC5)cc4)cnc23)cs1)C(F)(F)F

fold change (FC) [8]: 0.27 | inhibition [9]: 0% | inhibition [10]: 0%
Structure (SMILES): O=C(N[C@@H](C1CC1)C(F)(F)F)c1cc(-c2cnn3cc(-c4ccc(F)cc4)cnc23)cs1
